Patent EP1102746B1, “SUBSTITUTED PHENYLAMIDINES WITH ANTITHROMBOTIC ACTION” (Boehringer Ingelheim Pharma GmbH & Co.KG, priority 1998, dated 2000)

Assay: Plasma concentration of Verbindung A after oral administration to rhesus monkeys (determined by 3H-BIBU 52 ligand displacement on human platelets against a calibration curve)
Format: in vivo, Rhesusaffen
Conditions: rhesus monkey, oral 1 mg/kg, Rhesusaffe, concentration of Verbindung A measured
Protocol: Beispielsweise wurde die Konzentration der Verbindung A nach oraler Gabe der Verbindungen der Beispiele 1 (Verbindung B) und 1(1) (Verbindung C) der vorliegenden Erfindung im Plasma bestimmt und mit der Plasmakonzentration der Verbindung A nach oraler Gabe der Verbindung A verglichen.
Nach oraler Gabe von 1 mg/kg der zu untersuchenden Verbindungen am Rhesusaffen wird die Konzentration der Verbindung A im Plasma 4, 8, 12 und 24 Stunden nach Substanzgabe gemessen. Hierzu wird das Rhesusplasma mit einer Suspension von Humanthrombozyten in Plasma und ^3H-BIBU 52 (siehe DE-A-4,214,245) als Ligand inkubiert. Der freie und gebundene Ligand wird durch Zentrifugation getrennt und durch Szintillationszählung quantitativ bestimmt. Aus der Menge des gebundenen Liganden wird anhand einer Eichkurve die Konzentration der Verbindung A errechnet.
Dazu wird aus einer Antikubitalvene Spenderblut entnommen und mit Trinatriumzitrat antikoaguliert (Endkonzentration: 13 mMol/l). Das Blut wird 10 Minuten bei 170 x g zentrifugiert und das überstehende plättchenreiche Plasma (PRP) abgenommen. Das Restblut wird noch einmal bei 3200 x g scharf abzentrifugiert und das überstehende plättchenarme Plasma (PPP) abgenommen.
Für die Eichkurve zur Berechnung der Konzentration wird zu 995 µl PPP 5 µl Lösung der Verbindung A zugesetzt (Endkonzentration 5000 nMol/l). Aus dieser Plasmaprobe werden mit PPP weitere Plasmaproben verdünnt bis zu einer Endkonzentration von 2,5 nMol/l.
Zu 150 µl Plasmaprobe vom Rhesusaffen oder Eichkurvenplasma werden 10 µl ^3H-BIBU 52 (Endkonzentration 10 nMol/l), 10 µl ^14C-Sucrose (370 Bq) und 80 µl PRP gegeben und bei Raumtemperatur 20 Minuten inkubiert. Anschließend werden die Proben 5 Minuten bei 2000 x g zentrifugiert und der Überstand abgezogen. 100 µl des Überstandes werden versetzt mit 100 µl NaOH 0,2 Mol/l, 15 µl HCl 5 Mol/l und 2 ml Szintillator und die ^3H- und ^14C-Radioaktivität quantitativ gemessen. Das Pellet wird in 200 µl NaOH 0,2 Mol/l gelöst. 180 µl davon werden versetzt mit 15 µl HCl 5 Mol/l und 2 ml Szintillator und die ^3H- und ^14C-Radioaktivität gemessen. Das im Pellet noch verbliebene Restplasma wird aus dem ^14C-Gehalt bestimmt und abgezogen. Die Menge des gebundenen Liganden wird aus dem ^3H-Gehalt bestimmt. Die Menge des gebundenen Liganden wird gegen die Konzentration des Eichkurvenplasmas aufgetragen. Die Konzentration der Verbindung A im Rhesusplasma wird aus der Menge des gebundenen Liganden in der betreffenden Plasmaprobe im Vergleich mit der Eichkurve errechnet.
Die nachfolgende Tabelle enthält die gefundenen Werte: […]

Question: What does the source list for `N=C(N)c1ccc(NC(=O)CCC2CCN(CC(=O)O)CC2)cc1` [Verbindung A, 4-[2-[(4-Amidinophenyl)aminocarbonyl]ethyl]-1-carboxymethyl-piperidin]?
Answer: concentration at 4 h (4 h after dosing, read-out: Konz. von A in [nM], 4h): 174 nM; concentration at 8 h (8 h after dosing, read-out: Konz. von A in [nM], 8h): 38 nM; concentration at 12 h (12 h after dosing, read-out: Konz. von A in [nM], 12h): 25 nM; concentration at 24 h (24 h after dosing, read-out: Konz. von A in [nM], 24h): 3 nM
